Measurements: patent US20260102359A1, “COMBINATION TREATMENT OF DERMAL AND TRANSDERMAL FIBROTIC DISEASES, DISORDERS AND ASSOCIATED PAIN AND INFLAMMATION” (ERESINA, LLC, priority 2022, published 2026)
Counter-ions that a name gives are not always drawn.

system: hDMFa myofibroblast cells

SMILES | Compound Myofibroblast Cytotoxicity Activity
Nc1ccc(S(=O)(=O)Nc2ccnn2-c2ccccc2)cc1 [Cmpd 899, Sulfaphenazole] | +++
Nc1ccc(S(=O)(=O)Nc2nccs2)cc1 [Cmpd 900, Sulfathiazole] | ++++
COc1cc(O)c(C(=O)c2ccccc2)cc1S(=O)(=O)O [Cmpd 901, Sulisobenzone] | ++
CC1(C)S[C@@H]2[C@H](NC(=O)[C@H](N)c3ccccc3)C(=O)N2[C@H]1C(=O)OCOC(=O)[C@@H]1N2C(=O)C[C@H]2S(=O)(=O)C1(C)C [Cmpd 902, Sultamicillin] | ++
Nc1c2c(nc3ccccc13)CCCC2 [Cmpd 906, Tacrine hydrochloride] | ++++
CC/C(=C(\c1ccccc1)c1ccc(OCCN(C)C)cc1)c1ccccc1 [Cmpd 911, Tamoxifen Citrate] | +++
Cc1coc2c1C(=O)C(=O)c1c-2ccc2c(C)cccc12 [Cmpd 912, Tanshinone I] | +++++
Cc1coc2c1C(=O)C(=O)c1c-2ccc2c1CCCC2(C)C [Cmpd 913, Tanshinone IIA] | +++++
Cc1c(S(=O)(=O)[O-])oc2c1C(=O)C(=O)c1c-2ccc2c1CCCC2(C)C.[Na+] [Cmpd 914, Tanshinone IIA---sulfonic sodium] | ++
Cn1nnc(-c2ccc(-c3ccc(N4C[C@H](CO)OC4=O)cc3F)cn2)n1 [Cmpd 920, Tedizolid HCl] | ++++
CO[C@H]1C[C@@H]2CC[C@@H](C)[C@@](O)(O2)C(=O)C(=O)N2CCCC[C@H]2C(=O)O[C@H]([C@H](C)C[C@@H]2CC[C@@H](OC(=O)C(C)(CO)CO)[C@H](OC)C2)CC(=O)[C@H](C)/C=C(\C)[C@@H](O)[C@@H](OC)C(=O)[C@H](C)C[C@H](C)/C=C/C=C/C=C/1C [Cmpd 924, Temsirolimus (CCl-779, NSC 683864)] | +++++
COc1cc([C@@H]2c3cc4c(cc3[C@@H](O[C@@H]3O[C@@H]5CO[C@@H](c6cccs6)O[C@H]5[C@H](O)[C@H]3O)[C@H]3COC(=O)[C@H]23)OCO4)cc(OC)c1O [Cmpd 925, Teniposide] | ++
CN(C/C=C/C#CC(C)(C)C)Cc1cccc2ccccc12 [Cmpd 926, Terbinafine] | ++
CN(C/C=C/C#CC(C)(C)C)Cc1cccc2ccccc12 [Cmpd 927, Terbinafine HCl] | ++++
CC(C)N1CCN(c2ccc(OCC3COC(Cn4cncn4)(c4ccc(Cl)cc4Cl)O3)cc2)CC1 (stereo not drawn) [Cmpd 928, Terconazole] | ++
O=C(O)c1ccc(C(=O)O)cc1 [Cmpd 929, Terephthalic acid] | ++
CC1=CCC(O)(C(C)C)CC1 (stereo not drawn) [Cmpd 931, Terpinen-4-ol] | ++
COc1cc2c(cc1OC)C1CC(=O)C(CC(C)C)CN1CC2 (stereo not drawn) [Cmpd 933, Tetrabenazine] | +++
COc1ccc2cc1Oc1ccc(cc1)C[C@H]1c3cc(c(OC)cc3CCN1C)Oc1c(OC)c(OC)cc3c1[C@H](C2)N(C)CC3 [Cmpd 936, Tetrandrine] | ++
Cc1cnc(Nc2ccc(OCCN3CCCC3)cc2)nc1Nc1cccc(S(=O)(=O)NC(C)(C)C)c1 [Cmpd 937, TG101348 (SAR302503)] | ++++

SMILES | Compound Myofibroblast Cytotoxicity Activity
Cc1ncc(C[n+]2csc(CCO)c2C)c(N)n1.Cl.[Cl-] [Cmpd 939, Thiamine HCl (Vitamin B1)] | ++
CSc1ccc2c(c1)N(CCC1CCCCN1C)c1ccccc1S2 (stereo not drawn) [Cmpd 940, Thioridazine HCl] | ++++
Cc1cn([C@H]2C[C@H](O)[C@@H](CO)O2)c(=O)[nH]c1=O [Cmpd 943, Thymidine] | ++
O=c1sn(-c2cccc3ccccc23)c(=O)n1Cc1ccccc1 [Cmpd 946, Tideglusib] | ++
Clc1ccc(C(Cn2ccnc2)OCc2ccsc2Cl)c(Cl)c1 (stereo not drawn) [Cmpd 947, Tioconazole] | +++
Nc1n[n+]([O-])c2ccccc2[n+]1[O-] [Cmpd 948, Tirapazamine] | ++++
O=C(O)Cc1cc(I)c(Oc2ccc(O)c(I)c2)c(I)c1 [Cmpd 949, Tiratricol] | +++
O=C1NC(=O)[C@@H](c2cn3c4c(cccc24)CCC3)[C@@H]1c1c[nH]c2ccccc12 [Cmpd 950, Tivantinib (ARQ 197)] | ++
Cc1ccc(S(=O)(=O)NC(=O)NN2CCCCCC2)cc1 [Cmpd 953, Tolazamide] | ++++
Cc1c(Cl)cccc1Nc1ccccc1C(=O)O [Cmpd 955, Tolfenamic Acid] | ++
Cc1cccc(N(C)C(=S)Oc2ccc3ccccc3c2)c1 [Cmpd 956, Tolnaftate] | ++++
CN(C)CCOc1ccc(/C(=C(/CCCl)c2ccccc2)c2ccccc2)cc1 [Cmpd 959, Toremifene Citrate] | +++
NCCCS(=O)(=O)O [Cmpd 961, Tramiprosate] | +++++
C/C=C/c1ccc(OC)cc1 [Cmpd 963, Trans-Anethole] | ++
Cl.N[C@@H]1C[C@H]1c1ccccc1 [Cmpd 964, Tranylcypromine hydrochloride] | ++++
CC1(C)CC(=O)CC(C)(C)N1 [Cmpd 967, Triacetonamine] | ++
N[C@@H](Cc1cc(I)c(Oc2ccc(O)c(I)c2)c(I)c1)C(=O)O [Cmpd 972, Triiodothyronine] | ++
C[C@]12CC[C@H]3[C@@H](CC[C@@]45O[C@@H]4C(O)=C(C#N)C[C@]35C)[C@@H]1CC[C@@H]2O [Cmpd 973, Trilostane] | ++
COc1cc(C(=O)NCc2ccc(OCCN(C)C)cc2)cc(OC)c1OC.Cl [Cmpd 974, Trimethobenzamide hydrochloride] | ++
CC(CN(C)C)CN1c2ccccc2CCc2ccccc21.O=C(O)/C=C\C(=O)O (stereo not drawn) [Cmpd 975, Trimipramine (maleate)] | ++

SMILES | Compound Myofibroblast Cytotoxicity Activity
Cc1c(C)c2c(c(C)c1O)CCC(C)(COc1ccc(CC3SC(=O)NC3=O)cc1)O2 (stereo not drawn) [Cmpd 976, Troglitazone] | +++
Cc1[nH]c(/C=C2\C(=O)Nc3ccccc32)c(C)c1CCC(=O)O [Cmpd 979, TSU-68 (SU6668, Orantinib)] | ++
NCCc1ccc(O)cc1 [Cmpd 981, Tyramine] | ++
C[C@H](CCC(=O)O)[C@H]1CC[C@H]2[C@@H]3[C@@H](O)C[C@@H]4C[C@H](O)CC[C@]4(C)[C@H]3CC[C@]12C [Cmpd 988, Ursodeoxycholic Acid] | +
O=c1ccn([C@@H]2O[C@H](COP(=O)([O-])OP(=O)([O-])OP(=O)([O-])O)[C@@H](O)[C@H]2O)c(=O)[nH]1.[Na+].[Na+].[Na+] [Cmpd 990, UTP, Trisodium Salt] | ++
CCCC(CCC)C(=O)O [Cmpd 993, Valproic acid] | +++
COc1cc2/c(=N/c3ccc(Br)cc3F)nc[nH]c2cc1OCC1CCN(C)CC1 [Cmpd 994, Vandetanib (ZD6474)] | ++++
COc1cc(C(=O)O)ccc1O [Cmpd 995, Vanillic acid] | ++
CCCc1nc(C)c2c(=O)[nH]c(-c3cc(S(=O)(=O)N4CCN(CC)CC4)ccc3OCC)nn12 [Cmpd 996, Vardenafil] | ++++
COc1ccc(C(CN(C)C)C2(O)CCCCC2)cc1 (stereo not drawn) [Cmpd 998, Venlafaxine] | ++
C=Cc1c(C)c2cc3nc(cc4[nH]c(cc5nc(cc1[nH]2)C(C)=C5CCC(=O)O)c(CCC(=O)OC)c4C)[C@@]1(C)C3=CC=C(C(=O)OC)[C@H]1C(=O)OC [Cmpd 999, Verteporfin] | +++++
OCc1cc([C@@H](O)CNCCCCCCOCCOCc2c(Cl)cccc2Cl)ccc1O [Cmpd 1001, Vilanterol trifenatate] | +++
CC[C@]1(O)C[C@@H]2CN(CCc3c([nH]c4ccccc34)[C@@](C(=O)OC)(c3cc4c(cc3OC)N(C)[C@H]3[C@@](O)(C(=O)OC)[C@H](OC(C)=O)[C@]5(CC)C=CCN6CC[C@]43[C@@H]65)C2)C1 [Cmpd 1002, Vinblastine sulfate] | ++
CC[C@]1(O)C[C@H]2CN(CCc3c([nH]c4ccccc34)[C@@](C(=O)OC)(c3cc4c(cc3OC)N(C=O)[C@H]3[C@@](O)(C(=O)OC)[C@H](OC(C)=O)[C@]5(CC)C=CCN6CC[C@]43[C@@H]65)C2)C1 [Cmpd 1004, Vincristine sulfate] | +++
CCC1=C[C@@H]2CN(C1)Cc1c([nH]c3ccccc13)[C@@](C(=O)OC)(c1cc3c(cc1OC)N(C)[C@H]1[C@@](O)(C(=O)OC)[C@H](OC(C)=O)[C@]4(CC)C=CCN5CC[C@]31[C@@H]54)C2 [Cmpd 1005, Vinorelbine] | ++
CCOC(=O)C1=C[C@]2(CC)CCCN3CCc4c(n1c1ccccc41)[C@@H]32 [Cmpd 1006, Vinpocetine] | +++
C=C1CC[C@H](O)C/C1=C/C=C1\CCC[C@]2(C)[C@@H]([C@H](C)/C=C/[C@H](C)C(C)C)CC[C@@H]12 [Cmpd 1008, Vitamin D2 (Ergocalciferol)] | +++
C=C1CC[C@H](O)C/C1=C/C=C1\CCC[C@]2(C)[C@@H]([C@H](C)CCCC(C)C)CC[C@@H]12 [Cmpd 1009, Vitamin D3] | +++
CC1=C(C/C=C(\C)CCC[C@H](C)CCC[C@H](C)CCCC(C)C)C(=O)c2ccccc2C1=O [Cmpd 1010, Vitamin K1] | ++
CC(C)(C)C#Cc1cc(N(C(=O)[C@H]2CC[C@H](C)CC2)[C@H]2CC[C@H](O)CC2)c(C(=O)O)s1 [Cmpd 1014, VX-222 (VCH-222,Lomibuvir)] | ++
